Experimental data published in patent publication US20230085307A1, “PYRIDAZINONE COMPOUND AND HERBICIDE” (NISSAN CHEMICAL CORPORATION, priority 2019, published 2023).

Tests used:
[1] = tested on: wild oat; test: Test Example 5: herbicidal effect by foliage application, plastic box (Table 20, symbol I); type: in vivo, wild oat (Avena fatua); settings: foliage application, 320 g/ha, three weeks after application
How it was run: (§1)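 Plants were sown into sterilized diluvial soil under about 1.5 cm cover and kept in a greenhouse at 25° C. to 30° C. Fourteen days on, foliage received an even spray of the diluted emulsion. Herbicidal or crop effect was judged three weeks afterwards.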

[2] = tested on: blackgrass; test: Test Example 4: herbicidal effect by soil treatment (Table 19, symbol J); type: in vivo, blackgrass (Alopecurus myosuroides); settings: amount of applied herbicide 320 g/ha
How it was run: (§2)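 Pre-emergence style soil spray: seeds under ~1.5 cm sterilized diluvial soil received a uniform coat of emulsion diluted to the predetermined herbicide amount. Greenhouse 25–30° C; readout at week three on previously defined criteria.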

[3] = tested on: Japanese bulrush; test: Test Example 1: herbicidal activity, application before weed generation under submerged conditions (Table 16, symbol B); type: in vivo, Japanese bulrush (Schoenoplectus juncoides); settings: amount of applied herbicide 320 g/ha
How it was run: (§3)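 Submerged Wagner pots (alluvial soil, 4 cm water) sown with weed seeds and planted with 2.5-leaf rice seedlings; emulsifiable concentrate diluted in water applied to water surface on sowing day. Held in greenhouse at 25-30 °C; injury scored 0-5 by herbicidal rate after three weeks.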

[4] = tested on: redroot pigweed; test: Test Example 5: herbicidal effect by foliage application, plastic box (Table 20, symbol N); type: in vivo, redroot pigweed (Amaranthus retroflexus); settings: foliage application, 320 g/ha, three weeks after application
How it was run: as §1

[5] = tested on: velvetleaf; test: Test Example 4: herbicidal effect by soil treatment (Table 19, symbol M); type: in vivo, velvetleaf (Abutilon theophrasti); settings: amount of applied herbicide 320 g/ha
How it was run: as §2

[6] = tested on: lambsquarters; test: Test Example 4: herbicidal effect by soil treatment (Table 19, symbol O); type: in vivo, lambsquarters (Chenopodium album); settings: amount of applied herbicide 320 g/ha
How it was run: as §2

[7] = tested on: chickweed; test: Test Example 5: herbicidal effect by foliage application, plastic box (Table 20, symbol P); type: in vivo, common chickweed (Stellaria media); settings: foliage application, 320 g/ha, three weeks after application
How it was run: as §1

[8] = tested on: Chinese sprangletop; test: Test Example 3: herbicidal effect by foliage application, Wagner pot (Table 18, symbol D); type: in vivo, chinese sprangletop (Leptochloa chinensis); settings: 320 g/ha
How it was run: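 Plants were sown in alluvial soil held under 0.1–0.5 cm standing water and grown 14 days in a greenhouse at 25–30 °C. An emulsifiable formulation, water-diluted to the set dose, was then sprayed onto the foliage, and effects were scored three weeks later using previously defined criteria.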

[9] = tested on: barnyard grass; test: Test Example 5: herbicidal effect by foliage application, plastic box (Table 20, symbol H); type: in vivo, barnyard grass (Echinochloa crus-galli); settings: foliage application, 320 g/ha, three weeks after application
How it was run: as §1

[10] = tested on: wild oat; test: Test Example 4: herbicidal effect by soil treatment (Table 19, symbol I); type: in vivo, wild oat (Avena fatua); settings: amount of applied herbicide 320 g/ha
How it was run: as §2

[11] = tested on: velvetleaf; test: Test Example 5: herbicidal effect by foliage application, plastic box (Table 20, symbol M); type: in vivo, velvetleaf (Abutilon theophrasti); settings: foliage application, 320 g/ha, three weeks after application
How it was run: as §1

[12] = tested on: barnyard grass; test: Test Example 4: herbicidal effect by soil treatment (Table 19, symbol H); type: in vivo, barnyard grass (Echinochloa crus-galli); settings: amount of applied herbicide 320 g/ha
How it was run: as §2

[13] = tested on: southern crabgrass; test: Test Example 4: herbicidal effect by soil treatment (Table 19, symbol F); type: in vivo, southern crabgrass (Digitaria ciliaris); settings: amount of applied herbicide 320 g/ha
How it was run: as §2

[14] = tested on: redroot pigweed; test: Test Example 4: herbicidal effect by soil treatment (Table 19, symbol N); type: in vivo, redroot pigweed (Amaranthus retroflexus); settings: amount of applied herbicide 320 g/ha
How it was run: as §2

[15] = tested on: oval-leafed pondweed; test: Test Example 1: herbicidal activity, application before weed generation under submerged conditions (Table 16, symbol C); type: in vivo, oval-leafed pondweed (Monochoria vaginalis); settings: amount of applied herbicide 320 g/ha
How it was run: as §3

[16] = tested on: blackgrass; test: Test Example 5: herbicidal effect by foliage application, plastic box (Table 20, symbol J); type: in vivo, blackgrass (Alopecurus myosuroides); settings: foliage application, 320 g/ha, three weeks after application
How it was run: as §1

| Compound | I: wild oat, herbicidal effect grade [1] | J: blackgrass, herbicidal effect grade [2] | Herbicidal effect, B: Japanese bulrush [3] | N: redroot pigweed, herbicidal effect grade [4] | M: velvetleaf, herbicidal effect grade [5] | O: lambsquarters, herbicidal effect grade [6] | P: chickweed, herbicidal effect grade [7] | herbicidal effect on Chinese sprangletop (D) [8] | H: barnyard grass, herbicidal effect grade [9] | I: wild oat, herbicidal effect grade [10] | M: velvetleaf, herbicidal effect grade [11] | H: barnyard grass, herbicidal effect grade [12] | F: southern crabgrass, herbicidal effect grade [13] | N: redroot pigweed, herbicidal effect grade [14] | Herbicidal effect, C: oval-leafed pondweed [15] | J: blackgrass, herbicidal effect grade [16] |
| --- | --- | --- | --- | --- | --- | --- | --- | --- | --- | --- | --- | --- | --- | --- | --- | --- |
| COc1cc(F)ccc1-c1sc2cc(Cl)ccc2c1-c1c(O)c(C)nn(C)c1=O [3-043] | 4 (Herbicidal rate of 70% or more and less than 90%) | 3 (Herbicidal rate of 40% or more and less than 70%) | 1 (Herbicidal rate of 5% or more and less than 20%) | 2 (Herbicidal rate of 20% or more and less than 40%) | 3 (Herbicidal rate of 40% or more and less than 70%) | 5 (Herbicidal rate of 90% or more (almost completely withered)) | 5 (Herbicidal rate of 90% or more (almost completely withered)) | 3 (Herbicidal rate of 40% or more and less than 70%) | 4 (Herbicidal rate of 70% or more and less than 90%) | 0 (Herbicidal rate of 5% or less (almost no effect)) | 5 (Herbicidal rate of 90% or more (almost completely withered)) | 4 (Herbicidal rate of 70% or more and less than 90%) | 0 (Herbicidal rate of 5% or less (almost no effect)) | 4 (Herbicidal rate of 70% or more and less than 90%) | 2 (Herbicidal rate of 20% or more and less than 40%) | 5 (Herbicidal rate of 90% or more (almost completely withered)) |
| CCCOc1ccc2c(-c3c(O)c(C)nn(C)c3=O)c(-c3ccccc3OC)sc2c1 [3-099] | 2 (Herbicidal rate of 20% or more and less than 40%) | 4 (Herbicidal rate of 70% or more and less than 90%) | 5 (Herbicidal rate of 90% or more (almost completely withered)) | 5 (Herbicidal rate of 90% or more (almost completely withered)) | 3 (Herbicidal rate of 40% or more and less than 70%) | 5 (Herbicidal rate of 90% or more (almost completely withered)) | 5 (Herbicidal rate of 90% or more (almost completely withered)) | 5 (Herbicidal rate of 90% or more (almost completely withered)) | 5 (Herbicidal rate of 90% or more (almost completely withered)) | 0 (Herbicidal rate of 5% or less (almost no effect)) | 5 (Herbicidal rate of 90% or more (almost completely withered)) | 4 (Herbicidal rate of 70% or more and less than 90%) | 5 (Herbicidal rate of 90% or more (almost completely withered)) | 5 (Herbicidal rate of 90% or more (almost completely withered)) | 5 (Herbicidal rate of 90% or more (almost completely withered)) | 5 (Herbicidal rate of 90% or more (almost completely withered)) |
| CCCOc1ccc2c(-c3c(O)c(C)nn(C)c3=O)c(-c3ccccc3OCC)sc2c1 [3-103] | 2 (Herbicidal rate of 20% or more and less than 40%) | 3 (Herbicidal rate of 40% or more and less than 70%) | 5 (Herbicidal rate of 90% or more (almost completely withered)) | 5 (Herbicidal rate of 90% or more (almost completely withered)) | 3 (Herbicidal rate of 40% or more and less than 70%) | 5 (Herbicidal rate of 90% or more (almost completely withered)) | 5 (Herbicidal rate of 90% or more (almost completely withered)) | 5 (Herbicidal rate of 90% or more (almost completely withered)) | 5 (Herbicidal rate of 90% or more (almost completely withered)) | 0 (Herbicidal rate of 5% or less (almost no effect)) | 5 (Herbicidal rate of 90% or more (almost completely withered)) | 4 (Herbicidal rate of 70% or more and less than 90%) | 5 (Herbicidal rate of 90% or more (almost completely withered)) | 4 (Herbicidal rate of 70% or more and less than 90%) | 5 (Herbicidal rate of 90% or more (almost completely withered)) | 4 (Herbicidal rate of 70% or more and less than 90%) |
| COc1ccccc1-c1sc2cc(OCC(F)F)ccc2c1-c1c(O)c(C)nn(C)c1=O [3-114] | 5 (Herbicidal rate of 90% or more (almost completely withered)) | 5 (Herbicidal rate of 90% or more (almost completely withered)) | 5 (Herbicidal rate of 90% or more (almost completely withered)) | 5 (Herbicidal rate of 90% or more (almost completely withered)) | 4 (Herbicidal rate of 70% or more and less than 90%) | 5 (Herbicidal rate of 90% or more (almost completely withered)) | 5 (Herbicidal rate of 90% or more (almost completely withered)) | 4 (Herbicidal rate of 70% or more and less than 90%) | 5 (Herbicidal rate of 90% or more (almost completely withered)) | 0 (Herbicidal rate of 5% or less (almost no effect)) | 5 (Herbicidal rate of 90% or more (almost completely withered)) | 5 (Herbicidal rate of 90% or more (almost completely withered)) | 4 (Herbicidal rate of 70% or more and less than 90%) | 5 (Herbicidal rate of 90% or more (almost completely withered)) | 5 (Herbicidal rate of 90% or more (almost completely withered)) | 5 (Herbicidal rate of 90% or more (almost completely withered)) |
| CCOc1ccccc1-c1sc2cc(OCCOC)ccc2c1-c1c(O)c(C)nn(C)c1=O [3-123] | 5 (Herbicidal rate of 90% or more (almost completely withered)) | 4 (Herbicidal rate of 70% or more and less than 90%) | 5 (Herbicidal rate of 90% or more (almost completely withered)) | 5 (Herbicidal rate of 90% or more (almost completely withered)) | 2 (Herbicidal rate of 20% or more and less than 40%) | 5 (Herbicidal rate of 90% or more (almost completely withered)) | 5 (Herbicidal rate of 90% or more (almost completely withered)) | 5 (Herbicidal rate of 90% or more (almost completely withered)) | 5 (Herbicidal rate of 90% or more (almost completely withered)) | 4 (Herbicidal rate of 70% or more and less than 90%) | 5 (Herbicidal rate of 90% or more (almost completely withered)) | 5 (Herbicidal rate of 90% or more (almost completely withered)) | 5 (Herbicidal rate of 90% or more (almost completely withered)) | 5 (Herbicidal rate of 90% or more (almost completely withered)) | 5 (Herbicidal rate of 90% or more (almost completely withered)) | 5 (Herbicidal rate of 90% or more (almost completely withered)) |
